Holding throughout (details): at 10 µM
Assay [1] relates to T1, Receptor-type tyrosine-protein kinase FLT3 (Homo sapiens), P36888 [D835H].
T1 sequence (whole entry): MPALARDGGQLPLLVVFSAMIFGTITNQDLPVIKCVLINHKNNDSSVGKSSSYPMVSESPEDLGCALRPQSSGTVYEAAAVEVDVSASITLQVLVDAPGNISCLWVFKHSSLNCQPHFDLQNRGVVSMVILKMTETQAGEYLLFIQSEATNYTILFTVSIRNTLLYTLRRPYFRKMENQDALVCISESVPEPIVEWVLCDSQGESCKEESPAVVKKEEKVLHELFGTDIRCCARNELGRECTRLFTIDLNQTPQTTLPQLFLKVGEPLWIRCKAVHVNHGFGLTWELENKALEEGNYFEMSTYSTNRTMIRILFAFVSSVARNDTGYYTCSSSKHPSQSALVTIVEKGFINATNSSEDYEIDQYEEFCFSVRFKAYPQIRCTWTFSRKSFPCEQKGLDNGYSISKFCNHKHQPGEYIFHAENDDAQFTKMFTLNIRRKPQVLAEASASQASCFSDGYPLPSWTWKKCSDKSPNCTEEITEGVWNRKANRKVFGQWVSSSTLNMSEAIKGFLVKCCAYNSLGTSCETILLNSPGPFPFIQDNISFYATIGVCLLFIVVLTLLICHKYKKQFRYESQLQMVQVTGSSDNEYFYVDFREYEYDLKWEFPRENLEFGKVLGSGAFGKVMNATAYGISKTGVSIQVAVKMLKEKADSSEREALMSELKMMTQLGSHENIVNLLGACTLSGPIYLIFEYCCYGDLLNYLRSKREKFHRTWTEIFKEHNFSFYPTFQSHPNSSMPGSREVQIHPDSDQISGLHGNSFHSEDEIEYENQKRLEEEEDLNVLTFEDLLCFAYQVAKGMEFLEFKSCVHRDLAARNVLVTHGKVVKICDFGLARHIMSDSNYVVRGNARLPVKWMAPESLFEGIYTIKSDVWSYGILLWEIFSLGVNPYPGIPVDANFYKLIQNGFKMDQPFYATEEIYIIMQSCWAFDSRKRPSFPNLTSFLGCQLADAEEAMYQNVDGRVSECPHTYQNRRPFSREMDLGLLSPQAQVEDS
The assay can be described thus: (§1) Selectivity interaction (KinomeScan (DiscoverX)) EUB0000655a FLT3.

For assay [2], the system named is Receptor-type tyrosine-protein kinase FLT3 (Homo sapiens), P36888 [UNDEFINED MUTATION]. Described as §1.
Assay [3] concerns T2, Receptor-type tyrosine-protein kinase FLT3 (Homo sapiens), P36888 [N841I].
T2 sequence (whole entry): T1 sequence (whole entry) with H835D, N841I
Described as §1.

For assay [4], the system named is T3, Receptor-type tyrosine-protein kinase FLT3 (Homo sapiens), P36888 [R834Q].
T3 sequence (whole entry): T1 sequence (whole entry) with R834Q, H835D
The assay is described as §1.

Assay [5] deals with cAMP-dependent protein kinase catalytic subunit beta (Homo sapiens) (UniProt P22694).

2 molecules from ChEMBL document CHEMBL5465560, “Selectivity Literature for EUbOPEN Chemogenomic Library” (2024) can be followed below.

Substitutions are numbered along the chain they refer to.

Consider `CN(C)CCOc1ccc(-c2nc(-c3ccncc3)c(-c3ccc4c(c3)CC/C4=N\O)[nH]2)cc1`, for which the % of control in assay [1] was determined as 85%; in assay [2], 78%; in assay [3], 81%; in assay [4], 100%.
In assay [5], `COCC(=O)NC/C=C/c1ccc2ncnc(Nc3ccc(Oc4ccc(C)nc4)c(C)c3)c2c1` [CP-724714] showed a % of control of 100%.
